Non-standard residues stand in square brackets, D forms with d. Primed or numbered codes have the meaning given here. No end group written: not given here. Ida = iminodiacetic acid linker, its two carboxyls bind the Lys side-chain amines of two peptides, giving a homodimer; Ida(3) = iminodiacetic acid linker, Lys side-chain amines bound to its two carboxyl groups; Dip = N[C@H](C(=O)O)C(c1ccccc1)c1ccccc1; Ahx = NCCCCCC(=O)O

The first assay concerns HUVECs. It counts as cell-based. The note with it: 48 h. Put shortly:
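Proliferation read-out: BrdU incorporation after 48-hour culture (37 ° C, 5% CO2) with graded peptide doses. Cells were in EBM with 2% FCS at 5,000 per well, driven by VEGF (5 ng/ml) or bFGF (10 ng/ml), added after ≥12-hour attachment.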
In the case of `CC[C@H](C)[C@H](NC(=O)[C@H](CCCNC(=N)N)NC(=O)[C@@H](NC(=O)[C@H](Cc1c[nH]cn1)NC(=O)[C@H](CCC(N)=O)NC(=O)[C@H](CCCNC(=N)N)NC(=O)[C@H](CCCNC(=N)N)NC(=O)[C@H](Cc1c[nH]cn1)NC(=O)[C@H](Cc1c[nH]cn1)NC(=O)[C@H](CCCNC(=N)N)NC(C)=O)C(C)C)C(=O)N[C@@H](Cc1ccc(O)cc1)C(=O)N[C@@H](Cc1ccccc1)C(=O)N[C@@H](CCCCNC(=O)CN(CC(=O)NCCCC[C@H](NC(=O)[C@H](Cc1ccccc1)NC(=O)[C@H](Cc1ccc(O)cc1)NC(=O)[C@@H](NC(=O)[C@H](CCCNC(=N)N)NC(=O)[C@@H](NC(=O)[C@H](Cc1c[nH]cn1)NC(=O)[C@H](CCC(N)=O)NC(=O)[C@H](CCCNC(=N)N)NC(=O)[C@H](CCCNC(=N)N)NC(=O)[C@H](Cc1c[nH]cn1)NC(=O)[C@H](Cc1c[nH]cn1)NC(=O)[C@H](CCCNC(=N)N)NC(C)=O)C(C)C)[C@@H](C)CC)C(N)=O)C(=O)CCNC(=O)OC(C)(C)C)C(N)=O` [Peptide 333], the IC50 (as a rule, the point on the concentration scale where inhibition reaches its midpoint) is less than 10 µM.

The assay is the same for the next values; noted with them: HUVEC proliferation, bFGF at 10 ng/ml or VEGF at 5 ng/ml, 48 hours, BrdU incorporation; read-out: IC50 on HUVECs.
On to “286 (Ac-RRRRAQHVHIYFK-NH2; not fully specified (residue 13); also: homodimer via Ida linker on Lys13 side chain) [compound 286]”, for which the IC50 is less than 10 µM.

Turning to “406 (Ac-MRRRRQAVAIYFK; not fully specified (residue 13, C-terminus); also: homodimer via Ida linker on Lys side chains, linker at 13 via Ida, other end not in the chain) [compound 406]”, the IC50 was less than 10 µM. As to “483 (Ac-QRRRRQAVAIKF; not fully specified (residue 11); also: homodimer via Ida linker on Lys11 side chain) [compound 483]”, the 50% inhibitory concentration (IC50) was less than 10 µM.

Take “467 (Ac-ARK(Ida(3))RRQAVAIYF; also: homodimer via Ida linker on Lys3 side chain) [compound 467]”: the IC50 is greater than 30 µM. On the same count and under the same terms, as for “314 (Ac-RARRRQAVAIPFK(Ida)-NH2; also: homodimer via Ida linker on Lys13 side chain) [compound 314]”, the figure is greater than 30 µM; as for “337 (Ac-RHRHRQHVRIYFK(Ida(3))-NH2; also: homodimer via Lys13 side chain, Ida linker (Ida amino group Boc)) [compound 337]”, less than 10 µM. Turning to “213 (Ac-ARARRQRVAIIF; also: dimer: Phe C-termini joined via Lys linker) [compound 213]”, the 50% inhibitory concentration (IC50) was less than 10 µM. On to “419 (Ac-ARRRRQQVAIYFK; not fully specified (residue 13, C-terminus); also: homodimer of residues 1-13 via Ida linker on K13 side chain) [compound 419]”, for which the 50% inhibitory concentration (IC50) was less than 10 µM.

With KTKRKRKKQRVKIAYEEIFVK [compound 14], the IC50 was less than 10 µM.

Consider “28 (Ac-RTRRRRRRQRVRIAYEEIFVRNM[Ahx]K-NH2; not fully specified (residue 25); also: homodimer via Ida linker on Lys25 side chain, Ida amino group carries Boc) [compound 28]”, for which the IC50 was less than 10 µM. For the compound “512 (Ac-ARRRRGRVAIYFK; not fully specified (C-terminus); also: homodimer via Ida linker at Lys13 side chain) [compound 512]”, the half-maximal inhibitory concentration (IC50) was less than 10 µM. Take RKKQRVKIAYEEIFV [compound 64]: the IC50 lay in the range of 10 to 30 µM. Consider “395 (Ac-ARRRRQAVTIYFK; not fully specified (residue 13, C-terminus); also: homodimer of residues 1-13 via Ida linker at Lys13 side chain) [compound 395]”, for which the concentration for half-maximal inhibition (IC50) is less than 10 µM. As to “350 (Ac-ARRRRQRVAIY[Dip]K-NH2; not fully specified (residue 13); also: homodimer of residues 1-13 via Ida linker on K13 side chain) [compound 350]”, the half-inhibitory concentration (IC50) is less than 10 µM. With KTKRKRKKQRVKIAYEEIFAANM [compound 46], the IC50 fell in the range of 10 to 30 µM.

Regarding “299 (Ac-RRRRRQAVRIGIGFK-NH2; also: homodimer: Lys15 side chain bound to Ida linker) [compound 299]”, the IC50 is less than 10 µM. Turning to “197 (Ac-RAARRQRVRIIF; also: dimer: C-terminal Phe bound to an amino group of a Lys linker, 2 chains per Lys) [compound 197]”, the IC50 was less than 10 µM. Turning to “230 (XRHRRQRVRIIF; Xaa = Acylated Histidine; Dimeric peptide wherein the C terminus of Phe in position 12 of one peptide chain is covalently bound to one of the amino groups of a Lysine linker and Phe of the remaining peptide chain is covalently bound to the other amino group of the Lysine linker.) [compound 230]”, the half-maximal inhibitory concentration (IC50) is less than 10 µM. Still for that read-out and setting: as for KKKKKMPKLRFASRIRKIRKKQF [compound 71], the figure is 10 to 30 µM; as for “239 (Ac-RHRRRQRVHIIF; also: dimer via C-terminal Phe to Lys linker) [compound 239]”, less than 10 µM; as for KTKRKRKKQRVKIAYVQNM [compound 39], 10 to 30 µM. With “488 (Ac-PRRRNQAVAIKF; not fully specified (residue 11); also: homodimer via Ida linker on Lys11 side chain) [compound 488]”, the half-maximal inhibitory concentration (IC50) fell in the range of 10 to 30 µM. Regarding “335 (Ac-RHRRHQHVRIYFK; not fully specified (residue 13, C-terminus); also: homodimer via Ida linker on Lys13 side chain) [compound 335]”, the half-inhibitory concentration (IC50) is less than 10 µM. On the same count and under the same terms, the result for ATKRKRKKQRVKIIFVQNM [compound 123] reads less than 10 µM; that for “287 (Ac-RRRRHQHVHIYFK-NH2; not fully specified (residue 13); also: homodimer via Ida linker on Lys13 side chain) [compound 287]”, less than 10 µM. Take “456 (Ac-KRRRRQAVAIVF; not fully specified (residue 1); also: homodimer via Ida linker on K1 side chain) [compound 456]”: the IC50 was greater than 30 µM.

Take “338 (Ac-RHRRRQHVHIYFK(Ida(3))-NH2; also: homodimer via Lys13 side chain, Ida linker (Ida amino group Boc)) [compound 338]”: the half-inhibitory concentration (IC50) is less than 10 µM. For the compound KTKRKRKKQRVKIAYEEIFVQ [compound 26], the IC50 was less than 10 µM. For the compound “383 (Ac-ARRRRQFVAIYFK-NH2; not fully specified (residue 13); also: homodimer via Ida linker on Lys13 side chain, Ida amine Boc) [compound 383]”, the IC50 was less than 10 µM. As for “178 (Ac-RRRRRQAVRIIF; also: dimer: C-terminus of Phe12 of each chain bound to one amino group of a Lys linker) [compound 178]”, the IC50 is less than 10 µM. The same measure, in the same setting: as for “242 (Ac-RRHRRQHVRIIF; also: dimer via C-terminal Phe to Lys linker) [compound 242]”, the figure is less than 10 µM; as for “188 (Ac-RRRRHQRVRIIF; also: dimer: C-terminal Phe bound to an amino group of a Lys linker, 2 chains per Lys) [compound 188]”, less than 10 µM. As to VKIAYEEIFVQNM [compound 43], the IC50 is greater than 30 µM. For the compound “218 (Ac-RARRRQAVAIIF; also: dimer: Phe C-termini joined via Lys linker) [compound 218]”, the IC50 is less than 10 µM. Turning to “205 (Ac-RRARRQRVAIIF; also: dimer: Phe C-termini joined via Lys linker) [compound 205]”, the half-inhibitory concentration (IC50) is less than 10 µM.

For “506 (Ac-ARRRRQRVAIYFKGGRGDSP; also: homodimer via Ida linker at Lys13 side chain) [compound 506]”, the IC50 was less than 10 µM.

Consider “176 (Ac-RRRARQRVRIIF; also: homodimer via C-terminal Lys linker) [compound 176]”, for which the IC50 was less than 10 µM.

In the case of “333 (Ac-RHHRRQHVRIYFK; not fully specified (residue 13, C-terminus); also: homodimer via Ida linker on Lys13 side chain) [compound 333]”, the half-inhibitory concentration (IC50) was less than 10 µM. In the case of “303 (Ac-RRRRRQAVRIQIQFK(Ida)-NH2; also: homodimer via Ida linker on Lys15 side chain) [compound 303]”, the IC50 was less than 10 µM.

As for “485 (Ac-ARRRPQAVAIKF; not fully specified (residue 11); also: homodimer: Lys11 side chain bound to Ida linker (Boc on Ida N)) [compound 485]”, the IC50 was less than 10 µM. For “384 (Ac-ARRRRQGVAIYFK-NH2; not fully specified (residue 13); also: homodimer via Ida linker on Lys13 side chain, Ida amine Boc) [compound 384]”, the 50% inhibitory concentration (IC50) was less than 10 µM.

Take “368 (Ac-ARRRRQRVA[Dip]YFK-NH2; not fully specified (residue 13); printed as [AcARRRRQRVA3,3-diphenylAlaYFK*]; also: homodimer via Ida linker on Lys13 side chain, Boc on Ida amine) [compound 368]”: the IC50 was less than 10 µM.

In the case of “227 (Ac-ARRRRQRVAIWFK; also: homodimer via Ida linker on side chain of Lys13) [compound 227]”, the 50% inhibitory concentration (IC50) is less than 10 µM. Take “462 (Ac-ARRRRK(Ida(3))AVAIYF; also: homodimer via Ida linker on Lys side chains, linker at 6 via Ida, other end not in the chain) [compound 462]”: the half-maximal inhibitory concentration (IC50) fell in the range of 10 to 30 µM.

Source of the values: patent publication US20070203066A1, “Compositions and methods for inhibiting cellular proliferation” (priority 2005, published 2007).
